Data published in US20120065257A1, “USE OF BENZO-FUSED HETEROCYLE SULFAMIDE DERIVATIVES FOR THE TREATMENT OF MIGRAINE” (priority 2006, published 2012).
Values belong to the compound of their own block, whether it stands above or below them.

How the values were obtained:
[1] = Body weight and systemic physiology monitoring during CSD testing; format: in vivo, Sprague-Dawley rats; details: 100 mg/kg/day p.o. for 35 days
Description: Vehicle or Compound #8 was administered orally once a day for 35 days. On the last day of treatment, rats continued to receive food and water ad libitum, and were given their daily oral dose of vehicle or Compound #8 approximately 1.5 h prior to CSD testing. Rats were anesthetized using isoflurane and intubated via a tracheotomy for mechanical ventilation. Body temperature, blood pressure and heart rate were monitored throughout the procedure to ensure homeostasis. Rats were placed in a stereotaxic frame and three burr holes were drilled under saline cooling over the right hemisphere at the following coordinates (mm from bregma): (1) posterior 4.5, lateral 2.0 (occipital cortex): KCL application; (2) posterior 0.5, lateral 2.0 (parietal cortex): recording site 1; (3) anterior 2, lateral 2 (frontal cortex): recording site 2. Dura overlying the occipital cortex was gently removed. The steady (DC) potential and electrocorticogram (EcoG) were recorded with glass micropipettes filled with 200 mM NaCl, […] below the dural surface. An Ag/AgCl reference electrode was placed subcutaneously in the neck. Following surgical preparation, the cortex was allowed to recover for 30 minutes under saline irrigation. Cortical spreading depressions were initiated by placing a cotton ball soaked with 1M KCl on the pial surface. The number of KCL-induced CSDs was counted for 2 hours. Propagation speed was calculated from the distance (mm) between the recording electrodes 1 and 2, divided by the latency (min) between the CSDs recorded at these sites.

[2] = tested on: KCl-induced cortical spreading depression; assay: KCl-induced cortical spreading depression (CSD) assay as model of migraine; format: in vivo, Sprague-Dawley rats; details: 100 mg/kg/day p.o. for 35 days
Description: Cortical spreading depression (CSD) has been implicated in migraine and as a headache trigger, and can be evoked in experimental animals by electrical or chemical stimulation (Kunkler & Kraig, 2003; Lauritzen et al., 1982; Moskowitz, 1984).
Adult male Sprague-Dawley rats (250-600 g) were divided into two treatment groups: vehicle (0.5% methylcellulose; n=13) and Compound #8 (100 mg/kg/day, p.o.; n=7). Results were compared to historical positive controls with valproic acid at 200 mg/kg/day, i.p.
Vehicle or Compound #8 was administered orally once a day for 35 days. On the last day of treatment, rats continued to receive food and water ad libitum, and were given their daily oral dose of vehicle or Compound #8 approximately 1.5 h prior to CSD testing. Rats were anesthetized using isoflurane and intubated via a tracheotomy for mechanical ventilation. Body temperature, blood pressure and heart rate were monitored throughout the procedure to ensure homeostasis. […] The steady (DC) potential and electrocorticogram (EcoG) were recorded with glass micropipettes filled with 200 mM NaCl, […] below the dural surface. […] The number of KCL-induced CSDs was counted for 2 hours. Propagation speed was calculated from the distance (mm) between the recording electrodes 1 and 2, divided by the latency (min) between the CSDs recorded at these sites. […]

[3] = tested on: KCl-induced cortical spreading depression; details: historical positive control, 200 mg/kg/day i.p. for 4 weeks; saline 18; p<0.05; cited from earlier work

- melting point: 76 to 78 °C
Structure (SMILES): CN(C)S(=O)(=O)NCC1COc2ccccc2O1 (racemic) [Compound #6, N-(2,3-Dihydro-benzo[1,4]dioxin-2-ylmethyl)-N′,N′ dimethylsulfamide]

- melting point: 100 to 101 °C
Structure (SMILES): NS(=O)(=O)NCC1CCc2ccccc2O1 (centres unmarked) [Compound #10, Chroman-2-ylmethylsulfamide]

- melting point: 101 to 103 °C
Structure (SMILES): NS(=O)(=O)NCCC1COc2ccccc2O1 (centres unmarked) [Compound #16, 2-(2,3-Dihydro-benzo[1,4]dioxin-2-yl)-ethylsulfamide]

The next lines start with the compound.

Structure (SMILES): CN(CC1COc2ccccc2O1)S(N)(=O)=O (racemic) [Compound #7, N-(2,3-Dihydro-benzo[1,4]dioxin-2-ylmethyl)-N-methylsulfamide]
- melting point: 97 to 98 °C

Structure (SMILES): NS(=O)(=O)NC[C@H]1COc2cc(Cl)ccc2O1 [Compound #8, (2S)-(−)-N-(6-Chloro-2,3-dihydro-benzo[1,4]dioxin-2-ylmethyl)-sulfamide]
- Physiological monitoring, including arterial pH, pCO2, pO2 and blood pressure, versus vehicle [1]: did not differ between the groups
- Systemic Physiology: pH (arterial) ([1]; vehicle 7.44 ± 0): 7.42 ± 0.03
- Systemic Physiology: pCO2 ([1]; vehicle 38 ± 3, in mmHg (unit assumed)): 39 ± 3
- Systemic Physiology: BP ([1]; vehicle 105 ± 14, in mmHg (unit assumed)): 107 ± 18
- Systemic Physiology: pO2 ([1]; vehicle 162 ± 9, in mmHg (unit assumed)): 157 ± 18
- Body weight ([1]; vehicle 401 ± 40): 418 ± 31 g
- CSDs (2 h) ≧ 5 mV (number of KCl-induced cortical spreading depressions) ([2]; 1M KCl topical, counted for 2 hours, vehicle 16 ± 3, p=0.12, not significant): 14±3
- Propagation Speed ([2]; vehicle 3.2 ± 1, p=0.06): 2.7±0.4 mm/min

Structure (SMILES): NS(=O)(=O)NC[C@H]1COc2cc(Cl)c(Cl)cc2O1 [Compound #29, (2S)-(−)-N-(6,7 Dichloro-2,3-dihydro-benzo[1,4]dioxin-2-ylmethyl)-sulfamide]
- melting point: 119 to 121 °C

Structure (SMILES): CCCC(CCC)C(=O)O [valproate, valproic acid]
- number of cortical spreading depressions [3]: 14
